Legend:
Format in all cases: cell-based
SNU-484 = assay: Anti-proliferative MTT assay, SNU-484; settings: 96 h, SNU-484, Stomach, 4 days
Description: (§1) Various cancer cell lines (rectal cancer, prostate cancer, breast cancer, lung cancer, stomach cancer, liver cancer, leukemia, brain cancer, and glioma cell lines) were cultured in microtiter plate (1-3×10^3 cells/well), to which ethyl(2-methyl-3{(E)-[(naphtho[2,1-b]furan-2-ylcarbonyl)hydrazono]methyl}-1H-indole-1-yl)acetate was treated. The culture continued for 4 days. Cytotoxicity was investigated by MTT assay by the same manner as described in Example <1-2>. IC50 was calculated by long-dose response curve. The data presents the mean value obtained from the assay performed in triplicate.

HeLa cells = assay: Immunofluorescence of intracellular microtubules and chromosomes
Description: To investigate the effect of ethyl(2-methyl-3{(E)-[(naphtho[2,1-b]furan-2-ylcarbonyl)hydrazono]methyl}-1H-indole-1-yl)acetate on intracellular microtubules, HeLa cells were treated with DMSO, Taxol (100 μM), nocodazole (200 ng/ml), or ethyl(2-methyl-3{(E)-[(naphtho[2,1-b]furan-2-ylcarbonyl)hydrazono]methyl}-1H-indole-1-yl)acetate (5 μM) for 17 hours. After fixing the cells, the cells were immuno-stained with Alexa Fluor 488-conjugated anti-tubulin antibody and Hoechst 33342 to confirm α-tubulin and chromosomes.

caspase-3 and PARP = assay: Immunoblotting of apoptosis related proteins; settings: HeLa cells
Description: Particularly, HeLa cells were treated with DMSO or ethyl(2-methyl-3{(E)-[(naphtho[2,1-b]furan-2-ylcarbonyl)hydrazono]methyl}-1H-indole-1-yl)acetate for 24 or 48 hours. Then, immunoblotting was performed to investigate the expressions of caspase-3 and PARP, the apoptosis related proteins. PARP (poly(ADP-ribose)polymerase) is one of the downstream cleavage proteins derived from caspase3. Immunoblotting was performed using caspase-3, PARP, and GAPDH specific antibodies.

HeLa cell line = assay: Anti-proliferative activity in HeLa cells (MTT assay); settings: Homo sapiens
Description: Particularly, HeLa cell line (ATCC, USA) was treated with the compounds of Table 1 respectively, and then IC50 (the half maximal inhibitory concentration) was investigated (Table 1).
HeLa cells were treated with 100 nM, 250 nM, 500 nM and 1 μM of ethyl(2-methyl-3{(E)-[(naphtho[2,1-b]furan-2-ylcarbonyl)hydrazono]methyl}-1H-indole-1-yl)acetate or DMSO for 4 days. Then, the cell growth was confirmed by MTT assay. All the obtained numbers were calculated by normalizing the value of Day 0. The data presents the mean value obtained from the assay performed in triplicate.
Particularly, HeLa cells were distributed in a 96-well plate at the density of 2×10^3 cells/well. The cells were treated with DMSO or the compound of the present invention, to which MTT reagent was added at the concentration of 10 μl/well. 2 hours later, OD450 was measured, which became the value of Day 0. 4 days later, MTT reagent was added thereto again. 2 hours later, OD450 was measured. The data presents the mean value obtained from the assay performed in triplicate.

A549 = assay: Anti-proliferative MTT assay, A549; settings: Homo sapiens, 96 h, A549, Lung, 4 days
Description: as §1

K562/ADR = assay: Cytotoxicity MTT assay, multi-drug resistant K562/ADR
Description: Particularly, K562, MCF7 (Bio-Evaluation Center, Korea Research Institute of Bioscience and Biotechnology, Korea), and the multi-drug resistant cell lines thereof, K562/ADR and MCF7/ADR (Bio-Evaluation Center, Korea Research Institute of Bioscience and Biotechnology, Korea) were cultured in microtiter plate (1-3×10^3 cells/well). Then, the cells were treated with ethyl(2-methyl-3{(E)-[(naphtho[2,1-b]furan-2-ylcarbonyl)hydrazono]methyl}-1H-indole-1-yl)acetate, doxorubicin, or taxol, followed by culture for 4 days. Cytotoxicity was investigated by MTT assay by the same manner as described in Example <1-2>. IC50 was calculated by long-dose response curve. The data presents the mean value obtained from the assay performed in triplicate (Table 3).
The resistance factor of the multi-drug resistant cell line indicates the ratio of IC50 of the multi-drug resistant cell line to IC50 of the parent cell line showing no resistance, which was presented as a number in the bracket.

U373MG = assay: Anti-proliferative MTT assay, U373MG; settings: Homo sapiens, U373 MG, 96 h, Brain, 4 days
Description: as §1

[1] = system: Various cancer cell lines; assay: Anti-proliferative MTT assay, various cancer cell lines (summary); settings: 96 h, range over the cell lines, 4 days, read-out: IC50 across cancer cell lines
Description: as §1

[2] = system: Cdc25C, Cyclin B1, and Plk1 (Polo-like kinase 1); assay: Immunoblotting of proteins regulating cell division; settings: HeLa cells, 17 hours
From the text: The effect of ethyl(2-methyl-3{(E)-[(naphtho[2,1-b]furan-2-ylcarbonyl)hydrazono]methyl}-1H-indole-1-yl)acetate on Cdc25C, Cyclin B1, and Plk1 (Polo-like kinase 1), the proteins regulating cell division, was investigated. When Cdc25C is activated in the course of cell division, Cdc25C is hyperphosphorylated so that its movement on SDS-PAGE is slowed down. Based on that principal, Cdc25C activation was investigated. Referring that the expressions of Cyclin B1 and Plk1 are differently regulated in each stage of cell cycle, the expression of each protein was measured. The levels of Cyclin B1 and Plk1 were the lowest in G1 phase.
HeLa cells were treated with DMSO, nocodazole (NOC), or ethyl(2-methyl-3{(E)-[(naphtho[2,1-b]furan-2-ylcarbonyl)hydrazono]methyl}-1H-indole-1-yl)acetate for 17 hours. The cells were harvested, followed by immunoblotting using cyclin B1, Cdc25C, Plk1, and GAPDH specific antibodies. GAPDH was used as a loading control.

IC50 (SNU-484): 0.221 µM | IC50 (HeLa cell line; 96 h, HeLa, Cervix, MTT, 4 days): 0.26 µM | IC50 (HeLa cell line; HeLa cell line): 0.26 µM | IC50 (A549): 0.843 µM | IC50 [1]: 0.22 to 1.06 µM
SMILES: CCOC(=O)Cn1c(C)c(/C=N/NC(=O)c2cc3c(ccc4ccccc43)o2)c2ccccc21 [STK899704]
effect on microtubules (immunofluorescence over concentrations) (HeLa cells; 1 μM): all the microtubules were destroyed | effect on microtubules and chromosomes (immunostaining) (HeLa cells; 17 hours, Taxol 100 μM, nocodazole 200 ng/ml, compound 5 μM): chromosomes were not fully condensed and microtubules were destroyed | PARP cleavage (caspase-3 and PARP; 48 hours): significantly increased | caspase-3 cleavage (caspase-3 and PARP; 48 hours, 0.5 μM): significantly increased | caspase-3 cleavage (caspase-3 and PARP; 48 hours, 1 and 5 μM): more significantly increased | caspase-3 cleavage (caspase-3 and PARP; within 24 hours): not observed | IC50 (K562/ADR; Homo sapiens, 96 h, K562/ADR, MTT, 4 days): 285 µM | resistance factor (number in the bracket) (K562/ADR; ratio of IC50 of K562/ADR to IC50 of parent K562): 0.6 | IC50 (U373MG): 0.517 µM | effect on Cdc25C, cyclin B1 and Plk1 (immunoblotting) [2]: Cdc25C was phosphorylated and cyclin B1 and Plk1 were accumulated

Source: patent US9433607B2, “Composition for prevention or treatment of cancer comprising N-methylenenaphtho[2,1-b]furan-2-carbohydrazide derivatives as an active ingredient” (KOREA RESEARCH INSTITUTE OF BIOSCIENCE AND BIOTECHNOLOGY, priority 2012, dated 2016)
